Results reported in patent US20200291096A1, “BICYCLIC PEPTIDE LIGAND STING CONJUGATES AND USES THEREOF” (priority 2017, published 2020).
Starred links: 1 amine or outer side, 2 acyl side, 3 side chain; linkers in the order of their positions; H or OH if unused. Positions of bridges follow the written chain, without caps; N, C: chain ends. Non-standard residues stand in square brackets, D forms with d. Residues, ends and D or L forms follow the SMILES beside them. 1Nal = N[C@@H](Cc1cccc2ccccc12)C(=O)O; TBMB = c1c(C[*:1])cc(C[*:3])cc1C[*:2]; Tle = CC(C)(C)[C@H](N)C(=O)O; βAla = NCCC(=O)O; Sar = CNCC(=O)O

Key:
MMP9 = MMP9 (Homo sapiens, UniProt P14780); test: Effect on MMP9 catalytic activity; format: biochemical; details: in vitro
Chain of MMP9 (P14780 94-707, species assumed): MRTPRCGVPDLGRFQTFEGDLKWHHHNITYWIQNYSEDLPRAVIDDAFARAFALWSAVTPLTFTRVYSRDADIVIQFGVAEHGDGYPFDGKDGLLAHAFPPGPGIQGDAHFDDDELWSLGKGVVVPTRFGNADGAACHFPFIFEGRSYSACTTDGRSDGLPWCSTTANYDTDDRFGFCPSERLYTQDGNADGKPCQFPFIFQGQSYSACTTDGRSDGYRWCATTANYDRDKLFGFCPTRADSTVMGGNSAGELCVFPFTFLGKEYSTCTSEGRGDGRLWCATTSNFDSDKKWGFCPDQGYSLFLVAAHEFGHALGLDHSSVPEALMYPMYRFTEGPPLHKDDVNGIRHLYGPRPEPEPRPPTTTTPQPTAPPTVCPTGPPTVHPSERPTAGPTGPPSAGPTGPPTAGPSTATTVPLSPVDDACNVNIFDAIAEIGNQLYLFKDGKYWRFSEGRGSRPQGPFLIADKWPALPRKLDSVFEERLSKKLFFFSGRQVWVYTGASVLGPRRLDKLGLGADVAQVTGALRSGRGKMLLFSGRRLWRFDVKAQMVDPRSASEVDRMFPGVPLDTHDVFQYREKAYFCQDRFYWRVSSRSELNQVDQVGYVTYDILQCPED

[1] = tested on: cell migration or invasion; test: Effect on cell migration or invasion; format: cell-based; details: in vitro
catalytic domain (MT1) = test: Binding to catalytic domain of MT1
MMP24 = MMP24 (Homo sapiens, UniProt Q9Y5R2); test: Binding to related MMP family member MMP24
Chain of MMP24 (Q9Y5R2 156-645, species assumed): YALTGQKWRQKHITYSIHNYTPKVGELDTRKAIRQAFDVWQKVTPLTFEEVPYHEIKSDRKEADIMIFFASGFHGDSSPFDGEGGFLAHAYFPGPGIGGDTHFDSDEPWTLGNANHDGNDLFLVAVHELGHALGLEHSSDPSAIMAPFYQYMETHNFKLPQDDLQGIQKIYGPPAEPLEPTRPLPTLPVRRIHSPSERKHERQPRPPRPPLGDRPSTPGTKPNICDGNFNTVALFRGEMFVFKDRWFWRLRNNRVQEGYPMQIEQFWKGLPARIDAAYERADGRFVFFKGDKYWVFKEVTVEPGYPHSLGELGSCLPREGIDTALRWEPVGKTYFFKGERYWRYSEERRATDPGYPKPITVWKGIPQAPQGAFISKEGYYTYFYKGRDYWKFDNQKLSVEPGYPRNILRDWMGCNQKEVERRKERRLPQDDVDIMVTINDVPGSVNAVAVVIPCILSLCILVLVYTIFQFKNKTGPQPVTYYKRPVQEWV

MMP16 = MMP16 (Homo sapiens, UniProt P51512); test: Binding to related MMP family member MMP16
Chain of MMP16 (P51512 120-607, species assumed): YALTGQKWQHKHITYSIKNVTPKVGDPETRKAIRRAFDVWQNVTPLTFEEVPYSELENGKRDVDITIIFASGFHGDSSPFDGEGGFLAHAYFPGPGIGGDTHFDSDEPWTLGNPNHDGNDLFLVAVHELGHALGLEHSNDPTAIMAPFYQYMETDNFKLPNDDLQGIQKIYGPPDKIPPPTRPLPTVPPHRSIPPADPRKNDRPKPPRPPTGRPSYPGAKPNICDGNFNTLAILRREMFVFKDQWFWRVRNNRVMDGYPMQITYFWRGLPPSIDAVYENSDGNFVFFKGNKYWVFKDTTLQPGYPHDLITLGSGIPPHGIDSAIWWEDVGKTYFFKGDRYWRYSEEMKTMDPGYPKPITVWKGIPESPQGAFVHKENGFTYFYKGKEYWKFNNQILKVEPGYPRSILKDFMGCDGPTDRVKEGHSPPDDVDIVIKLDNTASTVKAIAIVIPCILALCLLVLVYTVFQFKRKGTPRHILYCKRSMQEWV

MMP2 [2] = target: T1, MMP2 (Homo sapiens, UniProt P08253); test: Effect on MMP2 catalytic activity; format: biochemical; details: in vitro
T1 sequence (P08253 110-660): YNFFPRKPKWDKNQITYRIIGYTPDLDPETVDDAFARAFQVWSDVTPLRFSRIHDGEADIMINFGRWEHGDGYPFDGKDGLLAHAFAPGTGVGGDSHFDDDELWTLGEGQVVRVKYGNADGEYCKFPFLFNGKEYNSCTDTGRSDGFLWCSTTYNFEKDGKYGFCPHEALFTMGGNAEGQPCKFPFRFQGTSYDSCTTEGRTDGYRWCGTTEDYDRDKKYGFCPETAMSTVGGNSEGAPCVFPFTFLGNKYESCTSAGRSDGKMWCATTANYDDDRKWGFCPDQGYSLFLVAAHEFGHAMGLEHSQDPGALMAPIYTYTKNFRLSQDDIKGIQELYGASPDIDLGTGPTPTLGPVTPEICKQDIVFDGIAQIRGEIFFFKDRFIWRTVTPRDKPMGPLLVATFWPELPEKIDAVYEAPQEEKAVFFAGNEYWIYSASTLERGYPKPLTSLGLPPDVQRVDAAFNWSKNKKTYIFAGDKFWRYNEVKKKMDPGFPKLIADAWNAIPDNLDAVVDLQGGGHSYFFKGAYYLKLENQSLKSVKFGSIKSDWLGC

MMP1 [3] = target: T2, MMP1 (Homo sapiens, UniProt P03956); test: Binding to related MMP family member MMP1
T2 sequence (P03956 100-469): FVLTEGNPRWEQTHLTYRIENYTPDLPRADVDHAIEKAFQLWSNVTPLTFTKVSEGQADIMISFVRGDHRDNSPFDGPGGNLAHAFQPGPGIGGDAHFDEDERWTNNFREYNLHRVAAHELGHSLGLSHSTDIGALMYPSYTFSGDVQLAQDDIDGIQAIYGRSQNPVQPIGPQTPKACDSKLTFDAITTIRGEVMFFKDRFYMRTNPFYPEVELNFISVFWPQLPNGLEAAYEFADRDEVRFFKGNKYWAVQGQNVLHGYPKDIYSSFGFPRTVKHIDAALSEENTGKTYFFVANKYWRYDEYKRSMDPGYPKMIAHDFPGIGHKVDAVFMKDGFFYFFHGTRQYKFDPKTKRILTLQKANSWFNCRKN

MMP1 [4] = target: T2, MMP1; test: Effect on MMP1 catalytic activity; format: biochemical; details: in vitro
MMP15 = MMP15 (Homo sapiens, UniProt P51511); test: Binding to related MMP family member MMP15
Chain of MMP15 (P51511 132-669, species assumed): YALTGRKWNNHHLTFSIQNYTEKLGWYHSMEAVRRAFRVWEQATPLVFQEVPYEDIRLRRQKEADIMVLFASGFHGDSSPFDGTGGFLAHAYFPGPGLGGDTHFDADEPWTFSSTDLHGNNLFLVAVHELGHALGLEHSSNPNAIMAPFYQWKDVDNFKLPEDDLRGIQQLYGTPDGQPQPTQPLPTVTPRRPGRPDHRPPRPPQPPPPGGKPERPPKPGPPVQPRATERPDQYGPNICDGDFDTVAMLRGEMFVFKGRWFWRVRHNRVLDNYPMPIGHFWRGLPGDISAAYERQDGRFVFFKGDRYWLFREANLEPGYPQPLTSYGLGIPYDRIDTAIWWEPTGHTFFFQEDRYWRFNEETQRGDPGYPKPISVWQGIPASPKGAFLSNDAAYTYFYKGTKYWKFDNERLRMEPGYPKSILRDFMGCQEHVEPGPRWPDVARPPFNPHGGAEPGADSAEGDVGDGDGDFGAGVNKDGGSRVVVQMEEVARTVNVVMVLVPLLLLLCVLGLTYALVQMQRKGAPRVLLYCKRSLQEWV

MMP2 [5] = target: T1, MMP2; test: Binding to related MMP family member MMP2
Pro-MMP1 = target: T3, Pro-MMP1 (Homo sapiens, UniProt P03956); test: Binding to related MMP family member Pro-MMP1
T3 sequence (P03956 20-469 limits assumed): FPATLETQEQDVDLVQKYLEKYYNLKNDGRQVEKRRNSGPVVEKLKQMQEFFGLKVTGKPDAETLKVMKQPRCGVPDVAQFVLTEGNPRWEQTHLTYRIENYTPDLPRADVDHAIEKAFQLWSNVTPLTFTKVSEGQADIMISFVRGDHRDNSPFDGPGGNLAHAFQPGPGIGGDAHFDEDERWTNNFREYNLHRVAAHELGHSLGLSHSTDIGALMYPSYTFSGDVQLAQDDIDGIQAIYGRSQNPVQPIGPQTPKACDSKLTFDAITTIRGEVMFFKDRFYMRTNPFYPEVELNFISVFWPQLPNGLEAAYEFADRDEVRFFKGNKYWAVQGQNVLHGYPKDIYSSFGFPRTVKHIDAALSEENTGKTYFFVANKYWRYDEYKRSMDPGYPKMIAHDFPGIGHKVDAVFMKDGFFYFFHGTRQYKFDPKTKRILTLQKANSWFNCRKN

MT1 = MT1 (Homo sapiens, UniProt P50281); test: Effect on catalytic activity of MT1 in vitro; format: biochemical

C[C@H](NC(=O)CN(C)C(=O)CN(C)C(=O)CN(C)C(=O)CN(C)C(=O)CN(C)C(=O)CN(C)C(=O)CN(C)C(=O)CN(C)C(=O)CN(C)C(=O)CN(C)C(=O)CCN)C(=O)N[C@H]1CSCc2cc3cc(c2)CSC[C@H](NC(=O)[C@@H](C)NC(=O)[C@H](Cc2cccc4ccccc24)NC(=O)[C@H](CCC(=O)O)NC(=O)[C@H](CC(N)=O)NC(=O)[C@@H](C)NC1=O)C(=O)N[C@@H](CCC(=O)O)C(=O)N[C@@H](CC(=O)O)C(=O)N[C@@H](Cc1ccccc1)C(=O)N[C@@H](Cc1ccc(O)cc1)C(=O)N[C@@H](CC(=O)O)C(=O)N[C@@H](C(C)(C)C)C(=O)N[C@H](C(N)=O)CSC3 [N241] (H-[βAla][Sar][Sar][Sar][Sar][Sar][Sar][Sar][Sar][Sar][Sar]AC[dA]NE[1Nal][dA]CEDFYD[Tle]C-NH2; linker 13-19-26 via TBMB; N-terminus and C-terminus assumed)
impact on MMP9 catalytic activity (MMP9): no direct impact
impact on cell migration or invasion [1]: no direct impact
binding to the catalytic domain (catalytic domain (MT1)): no binding
binding toward MMP24 (MMP24): no binding
binding toward MMP16 (MMP16): no binding
impact on MMP2 catalytic activity (MMP2 [2]): no direct impact
binding toward MMP1 (MMP1 [3]): no binding
impact on MMP1 catalytic activity (MMP1 [4]): no direct impact
binding toward MMP15 (MMP15): no binding
binding toward MMP2 (MMP2 [5]): no binding
binding toward Pro-MMP1 (Pro-MMP1): no binding
impact on the catalytic activity of the protease (MT1) (MT1): no direct impact
